Read-outs that look alike come from different tables or passages of the source.
How the values were obtained:
[1] = molecular target: T1, human TASK-2 K+ channel, SEQ ID NO: 28 (Homo sapiens, UniProt O95279); assay: TASK-2 currents elicited by voltage pulses to +50 mV, whole cell recording in transfected COS cells; format: cell-based
T1 construct: expressed in transfected cells; host or cells: COS cells transiently transfected with pIREScd8-TASK-2 (DEAE-dextran)
T1 sequence (O95279 1-499): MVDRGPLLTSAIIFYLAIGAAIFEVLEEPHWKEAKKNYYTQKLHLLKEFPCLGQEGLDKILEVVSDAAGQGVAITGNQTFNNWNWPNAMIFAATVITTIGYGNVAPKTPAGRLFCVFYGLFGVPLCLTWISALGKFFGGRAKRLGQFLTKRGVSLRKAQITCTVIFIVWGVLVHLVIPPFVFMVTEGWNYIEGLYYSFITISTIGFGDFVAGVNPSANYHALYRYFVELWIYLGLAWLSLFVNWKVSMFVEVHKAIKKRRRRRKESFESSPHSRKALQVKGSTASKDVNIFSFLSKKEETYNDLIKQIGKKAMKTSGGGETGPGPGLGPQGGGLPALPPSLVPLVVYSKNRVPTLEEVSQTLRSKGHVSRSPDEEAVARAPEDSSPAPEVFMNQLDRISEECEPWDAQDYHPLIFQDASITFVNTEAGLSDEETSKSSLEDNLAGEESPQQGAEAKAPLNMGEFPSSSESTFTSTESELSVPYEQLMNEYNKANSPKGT
Experimental: For patch clamp analyses, a NotI/EcoRI fragment of 3.2 kb was excised from pBS-TASK 2 and subcloned into the pIRES-CD8 vectorto givepIREScdB-TASK-2. ThepIRES-CD8 vector was obtained by replacing the neo^R gene in the original vector pIRESneo (Clontech) by the coding sequence of the T type lymphocyte's surface marker CD8. COS cells were seeded at a density of 20,000 cells per 35 mm dishes 24 h prior to transfection. Cells were then transiently transfected by the classical DEAE-dextian method with 1 µg of prREScdB-TASK-2 plasmid per 35 mm dish. Transiently-transfected cells were visualized 48 h after transfection using the anti-CD8 antibody coated beads method (24). For whole cell recordings, the internal solution contained 150 mM KCI, 3 mM MgCl2, 5 mM EGTA, and 10 mM HEPES at pH 7.2 with KOH, and he external solution 150 mM NaCl, 5 mM KCI, 3 mM MgCl2 1 mM CaCl2, 10 mM HEPES at pH 7.4 with NaOH.
The effects of various pharmacological agents on currents elicited by voltage pulses to +50 mV have been studied in TASK-2-exprcssing. COS cells.

[2] = molecular target: T2, human TWIK-1 K+ channel, SEQ ID NO: 2 (Homo sapiens, UniProt O00180); assay: TWIK-1 K+ currents, two-electrode voltage clamp in Xenopus oocytes injected with TWIK-1 cRNA; format: cell-based
T2 construct: expressed in transfected cells; host or cells: Xenopus laevis oocytes injected with cRNA transcribed from pEXO-TWIK-1
T2 sequence (O00180 1-336): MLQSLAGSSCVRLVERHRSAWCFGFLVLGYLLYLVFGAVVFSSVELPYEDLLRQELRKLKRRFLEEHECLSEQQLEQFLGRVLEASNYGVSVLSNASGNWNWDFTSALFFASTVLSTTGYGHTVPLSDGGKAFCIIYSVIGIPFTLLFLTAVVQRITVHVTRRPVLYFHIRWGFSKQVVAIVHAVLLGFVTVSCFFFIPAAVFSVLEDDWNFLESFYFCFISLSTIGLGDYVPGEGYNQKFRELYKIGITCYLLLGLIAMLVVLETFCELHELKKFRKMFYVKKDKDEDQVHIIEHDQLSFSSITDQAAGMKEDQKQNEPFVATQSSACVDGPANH
Experimental: For the functional study, the coding sequence of TWIK-1 was inserted between the noncoding sequences 5' and 3' of Xenopus globin in the vector pEXO (Lingueglia, E. et al., 1993, J. Biol. Chem., 269, 13736-13739). A complementary RNA (cRNA) was transcribed of this construction and injected in the oocytes of X laevis. In a 0.3ml perfusion chamber, a single oocyte was impaled on two standard glass microelectrodes (0.5 - 2.0 MW) charged with 3 M KCI and maintained under voltage-clamp with a Dagan TEV200 amplifier. The bath solution contained 98 mM KCl,1.8 raM CaCl2 […] and 5 mM HEPES at pH 7.4 with KOH. Stimulation of the preparation, data acquisition and analyses were carried out with the pClamp program (Axon Instruments) USA3.
Intracellular acidification of the oocytes was produced using two methods: • superfusion with a solution enriched in CO2 which produces acidification by a mechanism involving the bicarbonate transport system (Guillemare, E. et al., 1995, Mol. Pharmacol., 47, 588-594); • treatment with dinitrophenol (DNP), which is a metabolic inhibitor that decouples the H+ gradient in mitochondria and induces internal acidity (Pedersen, P. L. and Carafoli, E., 1997, Trends Biol. Sci., 12, 146-189).
Phosphorylation or dephosphorylation of specific amino acid residues is an important mechanism of regulation of the ionic channels (Levitan, I. B., 1994, Annul Rev. Physiol., 56, 193-212).

[3] = molecular target: T2, human TWIK-1 K+ channel, SEQ ID NO: 2; assay: TWIK-1 single channel activity, excised patch from Xenopus oocytes; format: cell-based; conditions: perfusion of the excised patch with 10 mM
Experimental: The pipettes were filled with a strong K+ solution (40 mM KCl, 100 mM of potassium methane sulfonate, 1.8 mM CaCl2, 2 m M MgCl2 and 5 mM HEPES adjusted to pH 7.4 with KOH). 100 µM of GdCl3 was added to the pipette solution to inhibit the action of the […]. The inside-out patches were perfused with a solution containing 140 mM KC1,10 mM CaCl2, 5 mM HEPES adjusted to pH 7.2 with KOH and 5 m M EGTA added daily. The single channel signals were filtered at 3.5 kHz and analyzed with the Biopatch program (Big-Logic, Grenoble, France).
With 3 mM of internal Mg^2+, the mean duration of opening at +80 mV is 1.9 ms and the unitary conductance is 19 +/- 1 pS (Figure 5c). At -80 mV, the channels are oscillating with a mean duration of opening of 0.3 ms, and a conductance value in creasing to 34 pS. […] In contrast to numerous channels which require the presence of ATP for their activity in the excised patch configuration, ATP is not required for the expression of TWIK-1.

[4] = molecular target: human TASK1 K+ channel, SEQ ID NO: 4 (Homo sapiens, UniProt O14649); assay: TASK1 currents elicited by voltage pulses to +50 mV, two-electrode voltage clamp in Xenopus oocytes; format: cell-based; conditions: for inhibition at 100 µM: read-out: TASK1 currents inhibited
Experimental: For functional studies, TASK1 cRNAs were injected into Xenopus oocytes. This was accomplished by subcloning a 2480 bp SmaI/XhoI fragment from pBS-hT ASK containing 14 bp of 5' UTR, the coding sequence and the entire 3' UTR into the pEXO vector (Lingueglia et al., 1993) to give pEXO-TASK1. Capped-cRNAs were synthesised in vitro from the linearized plasmid by using the T7 RNA polymerase (Stratagene). Xenopus laevis were purchased from CRBM (Montpellier, France). Preparation and cRNA injection of oocytes has been described elsewhere (Guillemare et al., 1992). Oocytes were used for electrophysiological studies 2 to 4 days following injection (20 ng/oocyte). In a 0.3 ml perfusion chamber, a single oocyte was impaled with two standard microelectrodes (1-2.5 Mn resistance) filled with 3 M KCI and maintained under voltage clamp by using a Dagan TEV 200 amplifier, in standard ND96 solution (96 mM NaC1. 2 mM KCI, 1.8 mM CaCI2, 2 mM MgCl2, 5 mM HEPES, pH 7.4 with NaOH). In some experiments, NaCl was substituted with TMA Cl (Tetra Methyl Ammonium Chloride). Stimulation of the preparation, data acquisition, and analysis were performed using pClamp software (Axon instruments, USA). Drugs were applied externally by addition to the superfusate (flow rate: 3 ml/min) or intracellularly injected by using a pressure microinjector (Inject+Matic, Switzedand). All experiments were performed at room temperature (21-22 °C).
Figure 12A presents the I-V relationships of the current in K^+-rich solutions ranging from 2 mM to 98 mM. […] The theoretical I-V relationships in various [K^+]out calculated according to the Goldman-Hodgkin-Katz current equation are shown in Figure 12D. […] The effect of various pharmacological agents on currents elicited by voltage pulses to +50 mV has been studied in TASK1-expressing oocytes.

[5] = molecular target: TWIK-1 (Tandem of P domains in a Weak Inward rectifying K+ channel) (human); assay: cell-based or functional assay
[6] = read-out: inhibition of TWIK-1 currents
[7] = COS, read-out: inhibition of the TASK-2 current

Sequence of human TASK1 K+ channel, SEQ ID NO: 4 (O14649 whole entry, the tested form may be a part): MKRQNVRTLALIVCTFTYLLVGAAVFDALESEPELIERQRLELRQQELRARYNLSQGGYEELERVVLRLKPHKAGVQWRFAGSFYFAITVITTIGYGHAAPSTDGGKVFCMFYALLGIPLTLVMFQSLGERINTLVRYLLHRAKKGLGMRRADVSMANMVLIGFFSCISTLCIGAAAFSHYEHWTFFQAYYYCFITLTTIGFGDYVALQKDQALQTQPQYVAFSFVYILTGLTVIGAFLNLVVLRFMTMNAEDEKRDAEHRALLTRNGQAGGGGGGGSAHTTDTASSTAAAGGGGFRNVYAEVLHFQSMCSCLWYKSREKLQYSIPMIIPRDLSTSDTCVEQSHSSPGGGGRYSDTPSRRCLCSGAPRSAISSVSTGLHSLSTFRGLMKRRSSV
Sequence of charybdotoxine (P13487 23-59 limits assumed): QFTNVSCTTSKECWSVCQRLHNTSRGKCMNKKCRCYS

Nc1ccncc1 [4-aminopyridine]
effect on TASK-2 currents ([1]; 100 µM): inactive | inhibition at 1000 µM ([2]; at 1 mM, read-out: inhibition of TWIK-1 currents): < 10%

Nc1ncnc2c1nc(Cl)n2[C@@H]1O[C@@H]2COP(=O)(O)O[C@H]2[C@H]1O [8-Cl-AMPc, 8-chloro cAMP]
sensitivity of TASK-2 currents ([1]; perfusion of 500 µM): insensitive | effect on the activity of TWIK-1 ([2]; 300 µM, activation of protein kinase A): does not affect

CNc1ccc2oc(C[C@H]3O[C@@]4(CC[C@H]3C)O[C@H]([C@H](C)C(=O)c3ccc[nH]3)[C@H](C)C[C@H]4C)nc2c1C(=O)O [A23187]
effect on the properties of the TWIK-1 channel [2]: without effect

Nc1ncnc2c1ncn2[C@@H]1O[C@H](COP(=O)(O)OP(=O)(O)OP(=O)(O)O)[C@@H](O)[C@H]1O [ATP]
effect on the activity of the TWIK-1 channel [3]: does not induce any effect

O=[N+]([O-])c1ccc(O)c([N+](=O)[O-])c1 [DNP, dinitrophenol]
inhibition at 1000 µM ([2]; DNP 1 mM, intracellular acidification, % of the control amplitude, read-out: reduction in the TWIK-1 currents): 80%

O=C(O)CN(CCOCCOCCN(CC(=O)O)CC(=O)O)CC(=O)O [EGTA]
sensitivity of TASK1 currents ([4]; injection of 100 mM, internal Ca2+ change): insensitive

CC(C)Cn1c(=O)n(C)c(=O)c2[nH]cnc21 [IBMX]
sensitivity of TASK1 currents ([4]; IBMX 1 mM perfused together with forskolin 10 µM, activation of adenyl cyclase): insensitive | sensitivity of TASK-2 currents ([1]; IBMX 1 mM in a cocktail with forskolin 10 µM, increasing intracellular cAMP): insensitive

CCCCCCCCCC(=O)O[C@@H]1[C@@H](C)[C@@]2(O)[C@@H](C=C(CO)C[C@@]3(O)C(=O)C(C)=C[C@@H]23)[C@@H]2C(C)(C)[C@]12OC(=O)CCCCCCCCC [PDA, 4α-phorbol-12, 13 didecanoate]
effect on TWIK-1 currents [2]: no effect

CC[N+](CC)(CC)CC [TEA, tetraethylammonium]
effect on TASK-2 currents ([1]; 1 mM): inactive | inhibition at 20000 µM [2, 6]: 30%

CCCCc1oc2ccccc2c1C(=O)c1cc(I)c(OCCN(CC)CC)c(I)c1 [amiodarone]
inhibition at 100 µM [2, 6]: < 10%

CCCCC/C=C\C/C=C\C/C=C\C/C=C\CCCC(=O)O [arachidonic acid]
sensitivity of TASK-2 ([1]; 10 µM): not sensitive

CCCCN1CCCCC1C(=O)Nc1c(C)cccc1C (stereo not shown) [bupivacaïne]
inhibition at 1000 µM ([1]; COS, 1 mM, n = 4, read-out: inhibition of the TASK-2 current): 80.9%

CCCCCCC[N+](CC)(CC)CCCCc1ccc(Cl)cc1 [clofilium]
inhibition at 30 µM [2]: < 10%

CC1(C)Oc2ccc(C#N)cc2C(N2CCCC2=O)C1O (stereo not shown) [cromakaline]
sensitivity of the TWIK-1 channel to K+ channel opener ([2]; 140 µM): not sensitive

COc1ccc(Cl)cc1C(=O)NCCc1ccc(S(=O)(=O)NC(=O)NC2CCCCC2)cc1 [glibenclamide]
inhibition at 30 µM [2]: < 10%

O=P(O)(O)O[C@@H]1[C@H](O)[C@H](O)[C@@H](OP(=O)(O)O)[C@H](OP(=O)(O)O)[C@H]1O [inositol triphosphate]
sensitivity of TASK1 currents ([4]; injection of 1 mM, internal Ca2+ change): insensitive

CCN(CC)CC(=O)Nc1c(C)cccc1C [lidocaine]
inhibition at 1000 µM [1, 7]: 60.4 ± 1.5%

CC(N/C(=N\C#N)Nc1ccncc1)C(C)(C)C (stereo not shown) [pinacidil]
sensitivity of the TWIK-1 channel to K+ channel opener ([2]; 100 µM): not sensitive

CCN(CC)CCCC(C)Nc1c2ccc(Cl)cc2nc2ccc(OC)cc12 (stereo not shown) [quinacrine]
inhibition at 100 µM [4]: < 20%

C=C[C@H]1C[N@@]2CC[C@H]1C[C@@H]2[C@@H](O)c1ccnc2ccc(OC)cc12 [quinidine]
inhibition at 100 µM [4]: < 20%

C=C[C@H]1C[N@@]2CC[C@H]1C[C@H]2[C@H](O)c1ccnc2ccc(OC)cc12 [quinine]
inhibition at 100 µM [4]: < 20% | IC50 [1]: 22.4 ± 1.8 µM | inhibition at 100 µM [1, 7]: 65 ± 3.8%

C1CCC2(C1)C1CN(CC3CC3)CC2CN(CC2CC2)C1 [tedisamil]
inhibition at 100 µM ([2]; at 100 µM, read-out: inhibition of TWIK-1 currents): 30%

apamin (from UniProt P01500 28-45) (peptide)
inhibition of TWIK-1 K+ currents (two-electrode voltage clamp, Xenopus oocytes) [5]: < 10%

charybdotoxine (from UniProt P13487 23-59) (peptide)
inhibition of TWIK-1 K+ currents (two-electrode voltage clamp, Xenopus oocytes) [5]: < 10%

dedrotoxine (peptide)
inhibition of TWIK-1 K+ currents (two-electrode voltage clamp, Xenopus oocytes) [5]: < 10%

From patent publication EP1129187B1, “NEW FAMILY OF MAMMALIAN POTASSIUM CHANNELS, THEIR CLONING AND THEIR USE, ESPECIALLY FOR THE SCREENING OF DRUGS” (CENTRE NATIONAL DE LA RECHERCHE SCIENTIFIQUE (CNRS), priority 1998, dated 2000)
